Test results: US12043599B2, “Herbicidal compounds” (SYNGENTA PARTICIPATIONS AG, priority 2018, dated 2024)

Legend:
Type in all cases: in vivo
Settings in all cases: 250 g/h, evaluated after 13 days
[1] = test system: Alopecurus myosuroides (ALOMY); test: Pre-emergence herbicidal glasshouse test, percentage damage
Method in brief: (§1)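 Pot-grown grass weeds in standard soil were sprayed 1 day after sowing (pre-emergence) or after 8 days (post-emergence) with compound at 250 g/h in acetone/water (50:50) with 0.5% Tween 20. Glasshouse conditions were 24/16 °C day/night, 14 h light, 65% humidity. Damage was scored after 13 days on a five-point scale.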

Avena fatua (AVEFA) [2] = test: as above
Method in brief: as §1

[3] = test system: Echinochloa crus-galli (ECHCG); test: as above
Method in brief: as §1

Lolium perenne (LOLPE) [4] = test: as above
Method in brief: as §1

Setaria faberi (SETFA) [5] = test: as above
Method in brief: as §1

Setaria faberi (SETFA) [6] = test: Post-emergence herbicidal glasshouse test, percentage damage
Method in brief: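 Wheat, barley and Setaria faberi were sprayed post-emergence after 8 days' growth (24/16 °C, 14 h light, 65% humidity) with compound in acetone/water (50:50) containing 0.5% Tween 20, at the indicated rates. On wheat, compounds were also applied with cloquintocet-mexyl at 50 g/ha. Damage was scored after 13 days on a five-point scale (5=80-100% to 1=0-19%).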

[7] = test system: Alopecurus myosuroides (ALOMY); test: as above
Method in brief: as §1

Avena fatua (AVEFA) [8] = test: as above
Method in brief: as §1

[9] = test system: Echinochloa crus-galli (ECHCG); test: as above
Method in brief: as §1

Lolium perenne (LOLPE) [10] = test: as above
Method in brief: as §1

| SMILES | ALOMY PRE percentage damage (five point scale) [1] | AVEFA PRE percentage damage (five point scale) (Avena fatua (AVEFA) [2]) | ECHCG PRE percentage damage (five point scale) [3] | LOLPE PRE percentage damage (five point scale) (Lolium perenne (LOLPE) [4]) | SETFA PRE percentage damage (five point scale) (Setaria faberi (SETFA) [5]) | SETFA POST percentage damage (five point scale) (Setaria faberi (SETFA) [6]) | ALOMY POST percentage damage (five point scale) [7] | AVEFA POST percentage damage (five point scale) (Avena fatua (AVEFA) [8]) | ECHCG POST percentage damage (five point scale) [9] | LOLPE POST percentage damage (five point scale) (Lolium perenne (LOLPE) [10]) |
| --- | --- | --- | --- | --- | --- | --- | --- | --- | --- | --- |
| CC#Cc1cc(C)c(C2C(=O)CC3(CCN(C(=O)COC4CC4)CC3)CC2=O)c(C)c1 [Compound A202] | 5 (5=80-100%) | 5 (5=80-100%) | 5 (5=80-100%) | 5 (5=80-100%) | 5 (5=80-100%) | 5 (5=80-100%) | 5 (5=80-100%) | 5 (5=80-100%) | 5 (5=80-100%) | 5 (5=80-100%) |
| CC#Cc1cc(C)c(C2C(=O)CC3(CCN([S+]([O-])C(C)(C)C)CC3)CC2=O)c(C)c1 (stereo not shown) [Compound A85] | 5 (5=80-100%) | 3 (3=40-59%) | 5 (5=80-100%) | 5 (5=80-100%) | 5 (5=80-100%) | 4 (4=60-79%) | 5 (5=80-100%) | 5 (5=80-100%) | 5 (5=80-100%) | 5 (5=80-100%) |
| CC#Cc1cc(C)c(C2C(=O)CC3(CCN(C(=O)C4=COCCC4)CC3)CC2=O)c(C)c1 [Compound A175] | 5 (5=80-100%) | 4 (4=60-79%) | 5 (5=80-100%) | 5 (5=80-100%) | 5 (5=80-100%) | 5 (5=80-100%) | 5 (5=80-100%) | 5 (5=80-100%) | 5 (5=80-100%) | 5 (5=80-100%) |
| CC#Cc1cc(C)c(C2C(=O)CC3(CCN(C(=O)c4cccc(C(F)(F)F)n4)CC3)CC2=O)c(C)c1 [Compound A91] | 5 (5=80-100%) | 5 (5=80-100%) | 5 (5=80-100%) | 5 (5=80-100%) | 5 (5=80-100%) | 5 (5=80-100%) | 5 (5=80-100%) | 5 (5=80-100%) | 5 (5=80-100%) | 5 (5=80-100%) |
| CC#Cc1cc(C)c(C2C(=O)CC3(CCN(C(=O)[C@@H]4COCCO4)CC3)CC2=O)c(C)c1 [Compound A174] | 5 (5=80-100%) | 5 (5=80-100%) | 5 (5=80-100%) | 5 (5=80-100%) | 5 (5=80-100%) | 5 (5=80-100%) | 5 (5=80-100%) | 5 (5=80-100%) | 5 (5=80-100%) | 5 (5=80-100%) |
| CC#Cc1cc(C)c(C2C(=O)CC3(CCN(C(=O)c4ccncn4)CC3)CC2=O)c(C)c1 [Compound A18] | 5 (5=80-100%) | 5 (5=80-100%) | 5 (5=80-100%) | 5 (5=80-100%) | 5 (5=80-100%) | 5 (5=80-100%) | 5 (5=80-100%) | 5 (5=80-100%) | 5 (5=80-100%) | 5 (5=80-100%) |
| CC#Cc1cc(C)c(C2C(=O)CC3(CCN(C(=O)CCc4ccccn4)CC3)CC2=O)c(C)c1 [Compound A184] | 1 (1=0-19%) | 2 (2=20-39%) | 4 (4=60-79%) | 5 (5=80-100%) | 5 (5=80-100%) | 5 (5=80-100%) | 4 (4=60-79%) | 5 (5=80-100%) | 5 (5=80-100%) | 5 (5=80-100%) |
| CC#Cc1cc(C)c(C2=C(OC(=O)OC)CC3(CCN(S(=O)(=O)CC)CC3)CC2=O)c(C)c1 [Compound P7, [9-(2,6-dimethyl-4-prop-1-ynyl-phenyl)-3-ethylsufonyl-10-oxo-3-azaspiro[5.5]undec-8-en-8-yl] methyl carbonate] | 5 (5=80-100%) | 5 (5=80-100%) | 5 (5=80-100%) | 5 (5=80-100%) | 5 (5=80-100%) | 5 (5=80-100%) | 5 (5=80-100%) | 5 (5=80-100%) | 5 (5=80-100%) | 5 (5=80-100%) |
| C=CCOCC(=O)N1CCC2(CC1)CC(=O)C(c1c(C)cc(C#CC)cc1C)C(=O)C2 [Compound A201] | 5 (5=80-100%) | 4 (4=60-79%) | 5 (5=80-100%) | 5 (5=80-100%) | 5 (5=80-100%) | 5 (5=80-100%) | 5 (5=80-100%) | 5 (5=80-100%) | 5 (5=80-100%) | 5 (5=80-100%) |
| CC#Cc1cc(C)c(C2C(=O)CC3(CCN(C(=O)c4ccccc4)CC3)CC2=O)c(C)c1 [Compound A7] | 5 (5=80-100%) | 5 (5=80-100%) | 5 (5=80-100%) | 5 (5=80-100%) | 5 (5=80-100%) | 5 (5=80-100%) | 5 (5=80-100%) | 5 (5=80-100%) | 5 (5=80-100%) | 5 (5=80-100%) |
| CC#Cc1cc(C)c(C2C(=O)CC3(CCN(C(=O)NC(=O)c4ccccc4F)CC3)CC2=O)c(C)c1 [Compound A167] | 4 (4=60-79%) | 4 (4=60-79%) | 5 (5=80-100%) | 5 (5=80-100%) | 5 (5=80-100%) | 5 (5=80-100%) | 5 (5=80-100%) | 5 (5=80-100%) | 5 (5=80-100%) | 5 (5=80-100%) |
| CC#Cc1cc(C)c(C2C(=O)CC3(CCN(S(=O)(=O)CC)CC3)CC2=O)c(OC)c1 [Compound A72] | 5 (5=80-100%) | 5 (5=80-100%) | 5 (5=80-100%) | 5 (5=80-100%) | 5 (5=80-100%) | 5 (5=80-100%) | 5 (5=80-100%) | 5 (5=80-100%) | 5 (5=80-100%) | 5 (5=80-100%) |
| CC#Cc1cc(C)c(C2C(=O)CC3(CCN(C(=O)C4=CCCCO4)CC3)CC2=O)c(C)c1 [Compound A182] | 5 (5=80-100%) | 3 (3=40-59%) | 5 (5=80-100%) | 5 (5=80-100%) | 5 (5=80-100%) | 5 (5=80-100%) | 5 (5=80-100%) | 4 (4=60-79%) | 5 (5=80-100%) | 5 (5=80-100%) |
